Test system: Homo sapiens
Assay: Drug level in human serum at 10 mg/kg
Format: ADME, organism-based
Parameters: dose 10 mg/kg
Conditions: in vivo

NNC(=O)c1ccncc1 [ISONIAZID]
Drug uptake: 0.4 µg/mL

Reference: ChEMBL document CHEMBL1275575, “Susceptibility of Mycobacterium bovis BCG vaccine strains to antituberculous antibiotics” (Antimicrob Agents Chemother, 2009)
